{
  "source": "patent US20040126421A1",
  "about": "“Liposomal system and method of using same” (priority 2002, published 2004)",
  "tested_on": "CD8+ T cells recognizing the ova peptide (SIINFEKL)",
  "experiment": "IFN-g ELISPOT of lymph node CD8+ T cells after vaccination",
  "assay_type": "in vivo, C57BL/6 mice",
  "description": "In order to test the potency of the Ubiquisome vaccine, the liposomes of example 1 were used as a vaccine. For vaccination, mice received a single administration of […] of liposomes containing 2.5 mg POPE and approximately […] peptide antigen. The vaccine was injected bilaterally in mouse tibealis anterior muscle ([…] per muscle).\nFor ELISPOT analysis, mice were sacrificed 5 days following vaccination and inguinal and popliteal lymph nodes were harvested. CD8+ T cells from lymph nodes were isolated using the MACS magnetic cell separation technique. 1×10^5 CD8+ T cells were plated per well in 96 well IP plates. Ova (SIINFEKL, Seq ID No. 3) or irrelevant peptide-pulsed EL4 lymphoma cells were irradiated and plated over CD8+ T cells at density of 10×10^4 cells/well. Following 20 h incubation and assay development, IFN-g secreting cells were visualized as brown spots on the IP membrane.",
  "data": [
    {"substance": "monophosphoryl Lipid A [MPL]", "values": [
      {"measurement": "CD8+ T cell response with increasing amounts of MPL in the bilayer", "result": "proportionally stronger CD8+ T cell responses"}
    ]}
  ]
}
